Results reported in ChEMBL document CHEMBL3639236, “Nitrogen containing morphinan derivatives and the use thereof” (2015).
pKi: −log10 of the molar value.

Experiments:
[1] = biological target: Kappa-type opioid receptor (Homo sapiens, UniProt P41145); assay: (§1) Radioligand Dose-Displacement Binding Assay: Radioligand dose-displacement binding assays for u-opioid receptors used 0.3 nM [3H]-diprenorphine (Perkin Elmer, Shelton, Conn.), with […] in a final volume of 500 ul binding buffer (10 mM MgCl2, 1 mM EDTA, 5% DMSO, 50 mM HEPES, pH 7.4). Reactions were carried out in the absence or presence of increasing concentrations of unlabeled naloxone. All reactions were conducted in 96-deep well polypropylene plates for 2 hours at room temperature. Binding reactions were terminated by rapid filtration onto 96-well Unifilter GF/C filter plates (Perkin Elmer, Shelton, Conn.), presoaked in 0.5% polyethylenimine using a 96-well tissue harvester (Perkin Elmer, Shelton, Conn.) followed by performing three filtration washes with 500 ul of ice-cold binding buffer. Filter plates were subsequently dried at 50 C. for 2-3 hours. BetaScint scintillation cocktail (Perkin Elmer, Shelton, Conn.) was added (50 ul/well), and plates were counted using a Packard Top-Counter.
Chain of Kappa-type opioid receptor (P41145 whole entry): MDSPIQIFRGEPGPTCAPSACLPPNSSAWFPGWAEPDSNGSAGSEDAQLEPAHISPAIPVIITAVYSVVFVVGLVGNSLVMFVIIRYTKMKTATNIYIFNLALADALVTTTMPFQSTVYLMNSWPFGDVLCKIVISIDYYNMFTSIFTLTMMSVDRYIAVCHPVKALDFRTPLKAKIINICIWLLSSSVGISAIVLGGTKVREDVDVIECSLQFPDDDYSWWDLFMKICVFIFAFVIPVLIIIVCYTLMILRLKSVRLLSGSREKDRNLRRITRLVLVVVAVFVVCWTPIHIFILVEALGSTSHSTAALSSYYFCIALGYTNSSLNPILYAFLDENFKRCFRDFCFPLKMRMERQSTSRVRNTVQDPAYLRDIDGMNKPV

Mu-type opioid receptor = Mu-type opioid receptor (Homo sapiens, UniProt P35372); assay: as §1
Chain of Mu-type opioid receptor (P35372 whole entry): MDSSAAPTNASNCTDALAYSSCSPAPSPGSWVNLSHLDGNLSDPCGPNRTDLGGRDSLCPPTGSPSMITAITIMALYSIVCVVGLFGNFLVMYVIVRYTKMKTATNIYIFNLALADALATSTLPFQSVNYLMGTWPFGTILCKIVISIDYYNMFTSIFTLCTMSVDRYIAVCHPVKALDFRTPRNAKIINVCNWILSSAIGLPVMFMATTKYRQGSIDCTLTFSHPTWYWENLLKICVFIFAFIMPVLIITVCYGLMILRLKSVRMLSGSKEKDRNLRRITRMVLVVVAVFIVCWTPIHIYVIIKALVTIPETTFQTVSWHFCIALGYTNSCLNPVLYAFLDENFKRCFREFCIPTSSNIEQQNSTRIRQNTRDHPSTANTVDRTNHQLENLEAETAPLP

SMILES	pKi [1]	pKi (Mu-type opioid receptor)
COc1ccc(CN2C[C@H]3[C@H]4Cc5ccc(OC)cc5[C@@]3(CCN4CC3CC3)CC2=O)cc1	6.39	
COc1ccc(CN2C=C3[C@H]4Cc5ccc(OC)cc5[C@@]3(CCN4CC3CC3)CC2=O)cc1	7.88	6.66
